This is an account of results in patent US20040005294A1, “IGFBP-3 in the diagnosis and treatment of cancer” (priority 2002, published 2004).

Common to all, as to format: cell-based, human
In one assay the test system is HB56B cells. Briefly: MTT proliferation assay, HB56B cells. The conditions noted are these: 10^−9 M to 10^−7 M, 1-3 days. How it is done:
To measure the effects of deguelin on cell proliferation, NHBE, 1799, 1198, 1170-1, and HB56B cells were plated at concentrations of 2×10^3 to 4×10^3 cells/well in 96-well plates. The next day, cells were treated with either 0.1% DMSO as a diluent control or various concentrations of deguelin (final DMSO concentration=0.1%). At the end of the assay time period, cell proliferation was measured by the 3-(4,5-dimethylthiazol-2-yl)-2,5-diphenyltetrazolium bromide (MTT) assay as described (Lee et al., 2002). Six replicate wells were used for each analysis, and data from replicate wells are presented as means with 95% confidence intervals (CIs). For some experiments, the drug concentration required to inhibit cell growth by 50% (IC50) was determined by interpolation from dose-response curves. At least three independent experiments were performed.
For orientation: Tetrazolium assays rely on reduction of a dye to a coloured formazan, in cell work by metabolically active cells.

In the next assay the test system is 1198 and 1170-1 cells. The assay can be described thus: Apoptosis by TUNEL and DNA fragmentation, 1198 and 1170-1 cells. The conditions noted are these: treatment for 1 day. As for the experimental part:
[…] Apoptosis was assessed by morphology, by a flow cytometry-based, modified terminal deoxynucleotidyl transferase dUTP nick end labeling (TUNEL) assay, and by the detection of fragmented DNA. For morphology, live cells were observed by light microscopy using a ×100 objective. For TUNEL analysis, both adherent and nonadherent cells were harvested and pooled, fixed with 1% paraformaldehyde and 70% ethanol, and processed using the APO-BrdU staining kit (Phoenix Flow Systems, San Diego, Calif.), a modified TUNEL assay, as described (Lee et al., 2002). Cells treated with DMSO were used to gate the control nonapoptotic populations and as a reference for cells treated with deguelin. An internal control (HL-60 cells treated with camptothecin to induce apoptosis) provided in the apoptosis detection kit was also used to ensure that the TUNEL reaction was occurring during the staining procedure. For the detection of fragmented nucleosomal DNA, cells were processed using the TACS apoptotic DNA laddering kit (Trevigen Inc., Gaithersburg, Md.), according to the manufacturer's recommended protocol.

The subject of assay [1] is NHBE cells. The assay can be described thus: Apoptosis by TUNEL and DNA fragmentation, NHBE cells. How it is done: NHBE, premalignant (1799 and 1198), and malignant (1170-1) HBE (2×10^6) cells were exposed to various doses of deguelin or to DMSO (0.1%) for 3 days. Apoptosis was assessed by morphology, by a flow cytometry-based, modified terminal deoxynucleotidyl transferase dUTP nick end labeling (TUNEL) assay, and by the detection of fragmented DNA. For morphology, live cells were observed by light microscopy using a ×100 objective. For TUNEL analysis, both adherent and nonadherent cells were harvested and pooled, fixed with 1% paraformaldehyde and 70% ethanol, and processed using the APO-BrdU staining kit (Phoenix Flow Systems, San Diego, Calif.), a modified TUNEL assay, as described (Lee et al., 2002). Cells treated with DMSO were used to gate the control nonapoptotic populations and as a reference for cells treated with deguelin. An internal control (HL-60 cells treated with camptothecin to induce apoptosis) provided in the apoptosis detection kit was also used to ensure that the TUNEL reaction was occurring during the staining procedure. For the detection of fragmented nucleosomal DNA, cells were processed using the TACS apoptotic DNA laddering kit (Trevigen Inc., Gaithersburg, Md.), according to the manufacturer's recommended protocol.

Assay [2] has as its system NHBE cells. Briefly: Cell cycle analysis by flow cytometry, NHBE cells. The conditions noted are these: 10^−7 M, 3 days. As for the experimental part: NHBE and 1799 cells were plated at a concentration of 2×10^5 cells/well in six-well plates. The next day, cells were treated with deguelin (various concentrations) or DMSO (0.1%) for 3 days to achieve maximal antiproliferative effects (determined from growth curves). All cells (nonadherent and adherent) were harvested, fixed with 1% paraformaldehyde and 70% ethanol, stained with 50 μg/mL propidium iodide, and subjected to flow cytometric analysis to determine the percentage of cells in specific phases of the cell cycle (G1, S, and G2/M) as described (Sun et al., 1997). Flow cytometric analysis was performed using a Coulter EPICS Profile II flow cytometer (Coulter Corp., Miami, Fla.) equipped with a 488-nm argon laser. Approximately 10 000 events (cells) were evaluated for each sample. Two independent experiments were performed and one is presented.

Another assay concerns squamous HBE cells. Briefly: Immunoblot of pAkt, pGSK-3β, caspase-3 and PARP, squamous HBE cells. As for the experimental part: Whole cell lysates from 1×10^6 cells were prepared in lysis buffer as described (Lonardo et al., 2002). Equivalent amounts of protein were resolved by sodium dodecyl sulfate (SDS)-polyacrylamide gels (7.5%-12%) and transferred to a nitrocellulose membrane. After the membrane was blocked in Tris-buffered saline (TBS) containing 0.05% Tween 20 (TBST) and 5% (w/v) nonfat powdered milk, the membrane was incubated with primary antibody at the appropriate dilution in TBS-5% nonfat milk at 4° C. for 16 h. The membrane was then washed multiple times with TBST and incubated with the appropriate horseradish peroxidaseconjugated secondary antibody for 1 h at room temperature. The protein-antibody complexes were detected by enhanced chemilurminescence (ECL kit; Amersham, Arlington Heights, Ill.), according to the manufacturer's recommended protocol.
To determine whether deguelin-induced antiproliferative effects on premalignant HBE cells were mediated through the inhibition of the PI3K/Akt pathway, 2×10^5 1799 cells/well or 1×10 ^6 squamous HBE cells/well in six-well plates were infected with 5×10 ^3 particles/cell of a control virus (Ad5CMV) or with 1×10^3 or 5×10^3 particles/cell of Ad5CMV-MyrAkt-HA, an adenoviral vector that expresses a constitutively active Akt. […] Apoptosis was analyzed using the APO-BrdU staining kit for TUNEL, Western blot analyses for caspase-3, and the cleavage of PARP.
On the technique in general: In western blotting, separated proteins are transferred to a membrane and probed.

As to `COc1cc2c(cc1OC)[C@@H]1C(=O)c3ccc4c(c3O[C@@H]1CO2)C=CC(C)(C)O4` [deguelin, Deguelin], the “effect on growth of HB56B cells” value with HB56B cells is “Dose- and time-dependent growth-inhibitory effects”. In the assay with 1198 and 1170-1 cells, the apoptotic events result is recorded as “did not induce detectable apoptotic events”. In the assay on NHBE cells [1], the “apoptosis (TUNEL, DNA fragmentation)” value was “neither a TUNEL-positive cell population nor fragmented DNA”. For the same compound, the cell cycle distribution entry in the assay with NHBE cells [2] is listed as “No detectable cell cycle changes”. In the assay on squamous HBE cells, the “levels of pAkt and pGSK-3β” value is “decreased the levels of pAkt and pGSK-3β in a time-dependent manner”. Moreover, the PARP cleavage entry in the assay with squamous HBE cells (10^−9 M to 10^−7 M, 1 day) was “increased PARP cleavage”.
